Results published in patent publication US7582280B2, “Conjugates of antioxidants with metal chelating ligands for use in diagnostic and therapeutic applications” (Bracco International B.V., priority 2000, dated 2009).
Where a name gives a salt, the structure may show the parent alone.

Legend:
[1] = molecular target: T1, seronom (HSA preparation) (Homo sapiens, UniProt P02768); experiment: Fraction bound in aqueous seronom by centrifree micropartition ultrafiltration and ICP [Gd]; type: in vitro ADME; conditions: centrifuged 500 xg 45 min, [Gd] by ICP
T1 sequence (P02768 25-609): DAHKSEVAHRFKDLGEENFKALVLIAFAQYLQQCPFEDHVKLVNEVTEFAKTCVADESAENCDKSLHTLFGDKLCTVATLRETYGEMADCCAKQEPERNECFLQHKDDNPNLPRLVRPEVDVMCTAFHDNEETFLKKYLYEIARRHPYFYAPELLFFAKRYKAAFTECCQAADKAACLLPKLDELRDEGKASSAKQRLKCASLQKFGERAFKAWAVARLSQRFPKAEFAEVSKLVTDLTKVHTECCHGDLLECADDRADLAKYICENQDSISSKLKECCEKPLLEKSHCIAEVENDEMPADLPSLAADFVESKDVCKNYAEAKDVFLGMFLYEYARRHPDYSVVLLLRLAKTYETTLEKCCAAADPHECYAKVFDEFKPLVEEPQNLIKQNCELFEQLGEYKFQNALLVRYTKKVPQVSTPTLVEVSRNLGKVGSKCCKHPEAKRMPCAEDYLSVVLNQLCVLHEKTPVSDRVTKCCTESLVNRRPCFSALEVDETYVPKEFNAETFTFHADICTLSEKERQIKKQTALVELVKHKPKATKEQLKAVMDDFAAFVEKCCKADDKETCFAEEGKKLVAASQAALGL
Experimental: After the measurement, the sample in aqueous seronom was placed in a centrifree micropartition device (Millipore, Beverly, Mass.). The device was centrifuged at 500 xg for 45 min in a fixed angle rotor (Beckman Model J2-21M, JA-20 rotor). The solution (0.5 mL) was taken from below the filter (unbound Gd-ligand) for [Gd] ICP measurement. The [Gd] of the uncentrifuged sample was also measured as a control. The Fraction Bound was calculated by the following equation: Fraction Bound=([Gd-ligand]control−[Gd-ligand]unbound)/[Gd-ligand]control. Table 1 details the results of the tests.

[2] = molecular target: T1, seronom (HSA preparation); experiment: Relaxivity in water containing 20% v/v seronom (HSA preparation); type: physicochemical; conditions: for Relaxivity in aqueous seronom r1Gd-ligand in seronom: 38° C., water containing 20% v/v seronom; for increase in relaxivity in the presence of seronom: seronom versus water
Text: (§1) Relaxivity of a paramagnetic material in the presence of a large protein such as human serum albumin may be used to study the ability of the compounds of the present invention to bind the target protein. As such, when a small molecule binds a large protein, the relaxivity of the former will increase because of an increase in its rotational correlation time. This increase in relaxivity may be used not only to measure the extent of binding but also to evaluate the viability of the paramagnetic agent as a blood pool contrast medium.
(§2) The relaxivity of the conjugates 22a and 22b in water as well as in water containing a known amount (20%, v/v) of a HSA preparation, known as, seronom (Table 1) were studied.
(§3) The relaxation time of the samples (22a or 22b) in seronom (T1Gd-ligand in seronom) and in water (T1Gd-ligand in water) were measured at 38° C. using an IBM PC/20 multispec relaxometer. The relaxivity of the samples in seronom (r1Gd-ligand in seronom) and in water (r1Gd-ligand in water) were calculated by the following equations: r1Gd-ligand in seronom=(1/T1Gd-ligand in seronom−1/T1seronom)/[Gd-ligand] r1Gd-ligand in water=(1/T1Gd-ligand in water−1/T1water)/[Gd-ligand],
(§4) where [Gd-ligand] is the concentration of the chelate 22a or 22b, which was determined by ICP^11; T1seronom is the relaxation time for pure aqueous seronom; T1water is the relaxation time for pure water.

[3] = Relaxivity in water (relaxometer); type: physicochemical; conditions: 38° C., IBM PC/20 multispec relaxometer
Text: as §1, §2, §3, §4

[4] = system: myocardial lesions induced by ischemia-reperfusion; conditions: rats; cited from earlier work

SMILES: O=C(O)CN1CCN(CC(=O)O)CCN(CC(=O)NCC(=O)NCC2CCC(C(=O)NC[C@@H](O)[C@@H]3OC(=O)C(O)=C3O)CC2)CCN(CC(=O)O)CC1 (stereo partly drawn) [Compound 22b, 1,4,7,10-tetraazacyclododecane-1,4,7-triacetic acid, 10-[2-[[2-[[[4-[[[(2R)-2-[(2S)-2,5-dihydro-3,4-dihydroxy-5-oxo-2-furanyl]-2-hydroxyethyl]amino]carbonyl]cyclohexyl]methyl]amino]-2-oxoethyl]amino]2-oxoethyl]-, gadolinium salt]
- fraction unbound [1]: 0.891
- Relaxivity in aqueous seronom r1Gd-ligand in seronom [2]: 8.18 mM⁻¹ s⁻¹
- increase in relaxivity in the presence of seronom [2]: 14%
- Relaxivity in water r1Gd-ligand in water [3]: 7.20 mM⁻¹ s⁻¹

SMILES: CCCCCCCCCCCCCCCCCCOC1=C(O)[C@@H]([C@@H](O)CO)OC1=O [2-O-octadecylascorbic acid]
- inhibition of myocardial lesions induced by ischemia-reperfusion [4]: markedly inhibit

SMILES: O=C(O)CN1CCN(CC(=O)O)CCN(CC(=O)NCC(=O)NC[C@@H](O)[C@@H]2OC(=O)C(O)=C2O)CCN(CC(=O)O)CC1 [Compound 22a, 1,4,7,10-tetraazacyclododecane-1,4,7-triacetic acid, 10-[2-[[2-[[(2R)-2-[(2S)-2,5-dihydro-3,4-dihydroxy-5-oxo-2-furanyl]-2-hydroxyethyl]amino]-2-oxoethyl]amino]2-oxoethyl]-, gadolinium salt]
- fraction unbound [1]: 0.912
- Relaxivity in aqueous seronom r1Gd-ligand in seronom [2]: 6.38 mM⁻¹ s⁻¹
- increase in relaxivity in the presence of seronom [2]: 32%
- Relaxivity in water r1Gd-ligand in water [3]: 4.83 mM⁻¹ s⁻¹
